The results in this text go back to US20240158370A1, “CK1 alpha AND DUAL CK1 alpha / GSPT1 DEGRADING COMPOUNDS” (Innovo Therapeutics, Inc., priority 2022, published 2024).

Type in all cases: cell-based
One assay deals with T1, CK1α (Homo sapiens, UniProt P48729+Q96SW2).
T1 construct: CSNK1A1-HiBit KI HEK293(LgBit) Cells; host or cells: HEK293(LgBit) knock-in cells
The assay is described as follows: HiBiT degradation assay, CK1α, Procedure A. The conditions noted are these: six hours incubation. The essentials: (§1)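 Luminescence from HiBiT lytic detection reports remaining tagged protein after cells sit six hours at 37° C with compound across ten concentrations (10 μM down to 0.005 μM, 0.1% DMSO). A 4-parameter curve fit gives DC50 and Ymin.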
In general terms: The HiBiT peptide binds its large partner to form an active luciferase.

A further assay relates to Z-138 cells. The assay is described as follows: Z-138 Proliferation Assay (Cell Titer-Glo). Conditions: 72 hours; for Ymin (%): % remaining (percent of DMSO control); for EC50: Homo sapiens, Cell Titer-Glo, 4-parameter curve fit. The procedure:
Z-138 Proliferation Assay
Z-138 cells were cultured in IMDM Medium supplemented with 10% heat in-activated fetal bovine serum and 1% Penicillin-Streptomycin.
10 mM stocks of compound were made from fresh powder. DMSO was added to solid compound so that the final concentration was 10 mM. Compounds were vortexed and allowed to sit for 5 minutes to ensure complete solubility. Solvated compound was aliquoted into 1 ml Eppendorf tubes and stored in a −20° C. freezer.
Z-138 cells were maintained in culture using standard cell culturing techniques.
Cells were maintained at a density of 0.8×10^6 cells/ml.
Re-constitute cell titer-glo reagent according to manufacturer's protocol.
Z-138 cells were removed from culture and cell viability and density were determined using a CellDrop™ Automated Cell Counter with Tryphan blue stain according to manufacturer's protocols. Cells were centrifuged and resuspended using fresh media to a cell density of 0.1×10^6 cells/ml. […] 40 μl of cell suspension was added to the wells of a 384 well tissue culture plate (4,000 cells/well final). Upon completing the addition of the cells to the plate, the plates were centrifuged for 30 seconds at 300 rpms to help the cells settle and to bring air bubbles to the top of the wells. Air bubbles were popped using a pipette tip.
10-point dose response curves were performed using a D300e Digital Dispenser. The highest concentration of compound used in the assay was 10,000 nM. 1:2 dilutions were performed over a 10-point range with the final DMSO concentration being 0.1%. The cells were cultured for 72 hours in the presence of compound.
After 72 hours, the cell plates were removed from the incubator and allowed to equilibrate to room temperature (about 15 minutes). 20 μl of cell titer-glo reagent was added to each well of the 384 well plate. Incubated the plate for 30 minutes in the dark. After 30 minutes, ensured that there were no air bubbles in the plate (popped bubbles with pipette tip if necessary) and analyzed plate using a luminometer.
EC50 curves were generated using Prism Graph Pad. In brief, POCs (percent of control, compound/DMSO control×100) were plotted against the compound concentrations (log scale). EC50 curves were generated using a 4-parameter curve fit.
On the technique in general: In ATP-based viability assays light output follows the ATP content of the culture.

Another assay has as its target GSPT1 (Homo sapiens, UniProt P15170+Q96SW2). The assay is described as follows: HiBiT degradation assay, GSPT1, Procedure A. The arrangement: HiBit-GSPT1 KI HEK293(LgBit) Cells; host or cells: HEK293(LgBit) knock-in cells. The conditions noted are these: six hours incubation. The method in brief:
as §1

T1 sequence (P48729 whole entry): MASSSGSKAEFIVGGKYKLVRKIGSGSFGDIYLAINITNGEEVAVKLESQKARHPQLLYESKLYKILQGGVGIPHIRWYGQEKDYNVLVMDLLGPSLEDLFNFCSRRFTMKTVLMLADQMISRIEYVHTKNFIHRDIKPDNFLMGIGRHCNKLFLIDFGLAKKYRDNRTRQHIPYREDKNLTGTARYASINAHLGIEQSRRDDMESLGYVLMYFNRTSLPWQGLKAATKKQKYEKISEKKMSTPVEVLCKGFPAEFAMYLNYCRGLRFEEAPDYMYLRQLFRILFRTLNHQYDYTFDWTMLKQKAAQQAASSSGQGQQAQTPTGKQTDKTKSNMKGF
T1 sequence (Q96SW2 whole entry): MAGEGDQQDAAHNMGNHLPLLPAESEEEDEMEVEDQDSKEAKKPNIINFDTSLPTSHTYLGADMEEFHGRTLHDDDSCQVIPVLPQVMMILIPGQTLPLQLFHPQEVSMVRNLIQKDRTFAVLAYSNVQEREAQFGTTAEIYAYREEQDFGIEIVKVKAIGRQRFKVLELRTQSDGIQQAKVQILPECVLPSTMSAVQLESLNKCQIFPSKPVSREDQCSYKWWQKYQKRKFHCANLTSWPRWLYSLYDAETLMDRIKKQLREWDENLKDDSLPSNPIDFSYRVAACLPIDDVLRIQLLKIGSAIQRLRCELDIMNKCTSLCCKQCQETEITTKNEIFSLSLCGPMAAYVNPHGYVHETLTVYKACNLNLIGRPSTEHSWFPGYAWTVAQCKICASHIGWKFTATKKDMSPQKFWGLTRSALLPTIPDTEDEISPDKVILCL
T1 sequence (Q16531 whole entry partner): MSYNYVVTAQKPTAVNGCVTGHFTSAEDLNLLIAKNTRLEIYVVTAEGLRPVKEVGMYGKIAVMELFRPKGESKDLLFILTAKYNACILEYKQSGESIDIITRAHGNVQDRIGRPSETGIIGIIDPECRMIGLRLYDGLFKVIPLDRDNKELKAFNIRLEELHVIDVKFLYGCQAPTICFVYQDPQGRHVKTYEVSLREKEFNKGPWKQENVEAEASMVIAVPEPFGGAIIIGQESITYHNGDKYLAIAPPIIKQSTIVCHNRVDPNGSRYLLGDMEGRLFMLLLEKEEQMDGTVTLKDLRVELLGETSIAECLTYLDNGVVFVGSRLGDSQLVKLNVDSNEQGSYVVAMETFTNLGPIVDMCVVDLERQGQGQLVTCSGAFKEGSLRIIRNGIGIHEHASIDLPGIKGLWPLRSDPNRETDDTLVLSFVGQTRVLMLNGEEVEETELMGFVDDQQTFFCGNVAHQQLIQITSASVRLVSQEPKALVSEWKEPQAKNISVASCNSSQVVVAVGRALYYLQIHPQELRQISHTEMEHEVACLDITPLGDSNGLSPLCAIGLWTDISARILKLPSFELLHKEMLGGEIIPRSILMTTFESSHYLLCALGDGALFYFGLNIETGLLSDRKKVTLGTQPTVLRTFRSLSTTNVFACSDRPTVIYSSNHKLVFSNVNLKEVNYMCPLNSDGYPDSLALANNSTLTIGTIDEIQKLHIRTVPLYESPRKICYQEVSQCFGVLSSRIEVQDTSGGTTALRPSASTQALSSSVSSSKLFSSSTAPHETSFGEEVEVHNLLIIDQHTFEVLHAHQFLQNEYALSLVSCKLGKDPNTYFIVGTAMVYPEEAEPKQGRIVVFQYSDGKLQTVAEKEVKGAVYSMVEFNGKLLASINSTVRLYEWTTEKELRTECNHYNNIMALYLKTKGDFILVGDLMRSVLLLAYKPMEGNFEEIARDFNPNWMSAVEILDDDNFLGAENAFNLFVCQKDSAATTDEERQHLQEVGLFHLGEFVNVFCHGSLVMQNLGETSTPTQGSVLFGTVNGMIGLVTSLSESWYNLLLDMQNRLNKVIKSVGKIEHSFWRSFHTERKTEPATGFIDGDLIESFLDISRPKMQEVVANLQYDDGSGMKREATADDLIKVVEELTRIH
Chain of GSPT1 (P15170 whole entry): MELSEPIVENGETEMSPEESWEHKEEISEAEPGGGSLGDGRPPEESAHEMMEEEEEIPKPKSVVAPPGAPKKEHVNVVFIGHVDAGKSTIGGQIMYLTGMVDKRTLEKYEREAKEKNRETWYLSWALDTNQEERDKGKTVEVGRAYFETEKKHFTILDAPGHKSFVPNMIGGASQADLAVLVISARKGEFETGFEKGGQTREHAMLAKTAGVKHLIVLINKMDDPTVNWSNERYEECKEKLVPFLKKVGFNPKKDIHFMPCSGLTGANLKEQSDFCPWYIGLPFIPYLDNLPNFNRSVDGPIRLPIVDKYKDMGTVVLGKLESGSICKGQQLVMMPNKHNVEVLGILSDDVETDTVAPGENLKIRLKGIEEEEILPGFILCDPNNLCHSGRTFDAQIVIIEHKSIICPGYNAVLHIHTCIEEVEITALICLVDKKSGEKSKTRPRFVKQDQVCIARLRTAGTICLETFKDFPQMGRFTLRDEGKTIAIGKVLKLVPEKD
Chain of GSPT1 (Q96SW2 whole entry): as the sequence (Q96SW2 whole entry) above
Chain of GSPT1 (Q16531 whole entry partner): as the sequence (Q16531 whole entry partner) above

One may read the DC50 as the concentration giving 50% degradation. Higher therefore signals a less potent degrader. As a reminder, the EC50 is the concentration giving half of the maximal effect. As for `Cc1ccc(-c2c(-c3ccc4c(c3)CN(C3CCC(=O)NC3=O)C4=O)cnn2C)cc1` (stereo not drawn) [Example 72], at CK1α, the “CK1α Ymin” value is “D (D = >10- 25% remaining)” and the DC50 was < 25 nM. For the same molecule, in the assay with Z-138 cells, the “Ymin (%)” value is on record as “E (>10-25% remaining)” and the half-maximal effective concentration (EC50) lay in the range of 10 to 100 nM. Besides, at GSPT1, the DC50 was ≥ 25 nM and the “GSPT1 Ymin” value is given as “F (F = >75-100% remaining)”.

With `Cn1cnc(-c2ccc3c(c2)CN(C2CCC(=O)NC2=O)C3=O)c1-c1ccc(F)c(C#N)c1` (stereo not drawn) [Example 184], at CK1α, the “CK1α Ymin” value is “D (D = >10- 25% remaining)” and the half-maximal degradation concentration (DC50) is < 25 nM. Further, in the assay on Z-138 cells, the “Ymin (%)” value is listed as “D (0-10% remaining)” and the concentration for a half-maximal effect (EC50) is 10 to 100 nM. In addition, on GSPT1, the DC50 is ≥ 25 nM and the “GSPT1 Ymin” value is on record as “C (C = 0-10% remaining)”.

With `O=C1CCC(N2Cc3cc(-c4cnn5c4-c4ccccc4C5)ccc3C2=O)C(=O)N1` (stereo not drawn) [Example 212, 3-(1-Oxo-5-(8H-pyrazolo[5,1-a]isoindol-3-yl)isoindolin-2-yl)piperidine-2,6-dione], at CK1α, the “CK1α Ymin” value was “D (D = >10- 25% remaining)” and the 50% degradation concentration (DC50) was < 25 nM. In addition, in the assay with Z-138 cells, the “Ymin (%)” value is “D (0-10% remaining)” and the EC50 lay within 100 to 500 nM. At GSPT1, the DC50 is ≥ 25 nM and the “GSPT1 Ymin” value is reported as “F (F = >75-100% remaining)”.

Take `CN(C)Cc1ccc(-c2c(-c3ccc4c(c3)CN(C3CCC(=O)NC3=O)C4=O)cnn2C)cc1` (stereo not drawn) [Example 224]: on CK1α, the “CK1α Ymin” value was “C (C = 0-10% remaining)” and the DC50 is < 25 nM. Besides, in the assay on Z-138 cells, the “Ymin (%)” value is “E (>10-25% remaining)” and the EC50 is < 10 nM. At GSPT1, the DC50 is ≥ 25 nM and the “GSPT1 Ymin” value was “F (F = >75-100% remaining)”.

`CN(C)Cc1ccc(-c2c(-c3ccc4c(c3)CN(C3CCC(=O)NC3=O)C4=O)ncn2C)cc1` (stereo not drawn) [Example 269]: on CK1α, the “CK1α Ymin” value is “C (C = 0-10% remaining)” and the DC50 was < 25 nM. Moreover, in the assay with Z-138 cells, the “Ymin (%)” value was “D (0-10% remaining)” and the EC50 is < 10 nM. Besides, on GSPT1, the DC50 is < 25 nM and the “GSPT1 Ymin” value is “F (F = >75-100% remaining)”.

In the case of `Cn1cnc(-c2ccc3c(c2)CN(C2CCC(=O)NC2=O)C3=O)c1-c1cccc(N2CCCC2)c1` (stereo not drawn) [Example 287], on CK1α, the “CK1α Ymin” value is “D (D = >10- 25% remaining)” and the DC50 was < 25 nM. Further, in the assay with Z-138 cells, the “Ymin (%)” value was “D (0-10% remaining)” and the EC50 was < 10 nM. Moreover, at GSPT1, the DC50 was < 25 nM and the “GSPT1 Ymin” value is on record as “F (F = >75-100% remaining)”.

Regarding `Cn1cc(-c2c(-c3ccc4c(c3)CN(C3CCC(=O)NC3=O)C4=O)ncn2C)cn1` (stereo not drawn) [Example 319], on CK1α, the “CK1α Ymin” value is given as “C (C = 0-10% remaining)” and the DC50 is < 25 nM. In addition, in the assay on Z-138 cells, the “Ymin (%)” value is recorded as “D (0-10% remaining)” and the EC50 was in the range of 10 to 100 nM. For the same molecule, on GSPT1, the 50% degradation concentration (DC50) is ≥ 25 nM and the “GSPT1 Ymin” value is reported as “E (E = >25-75% remaining)”.

For `Cn1cnc(-c2ccc3c(c2)CN(C2CCC(=O)NC2=O)C3=O)c1-c1cnn2ccccc12` (stereo not drawn) [Example 331], at CK1α, the “CK1α Ymin” value was “D (D = >10- 25% remaining)” and the 50% degradation concentration (DC50) is < 25 nM. Further, in the assay on Z-138 cells, the “Ymin (%)” value is “D (0-10% remaining)” and the EC50 lay within 10 to 100 nM. Also, at GSPT1, the DC50 was ≥ 25 nM and the “GSPT1 Ymin” value was “F (F = >75-100% remaining)”.

In the case of `Cn1cc(-c2ccc3c(c2)CN(C2CCC(=O)NC2=O)C3=O)nc1C1CCCCC1` (stereo not drawn) [Example 335, 3-(5-(2-cyclohexyl-1-methyl-1H-imidazol-4-yl)-1-oxoisoindolin-2-yl)piperidine-2,6-dione], on CK1α, the “CK1α Ymin” value is listed as “C (C = 0-10% remaining)” and the DC50 was < 25 nM. In addition, in the assay with Z-138 cells, the “Ymin (%)” value is “D (0-10% remaining)” and the EC50 is 10 to 100 nM. Besides, on GSPT1, the DC50 was < 25 nM and the “GSPT1 Ymin” value is given as “F (F = >75-100% remaining)”.
